The test system of series [1] is washed platelets. Description: Washed platelet aggregation (myricetin, gallic acid). The format is cell-based, human. The settings on record: for inhibition of platelet aggregation (in words): 75-300 μM; for inhibition at 30 µM: Homo sapiens, Platelet. How it is done: Whole blood was centrifuged at 250 × g for 10 min at 22°C to obtain PRP. To obtain washed platelets (WP), PRP was centrifuged twice (1,000 × g, 10 min, 20°C) in the presence of 1.25 μg/ml prostacyclin. The final platelet pellet was resuspended in modified Tyrode's-HEPES buffer, (20 mM N-2-hydroxyethylpiperazine-N'-2-ethanesulfonic acid, 5 mM glucose, 134 mM NaCl, 0.34 mM Na2HPO4, 2.9 mM KCl, 12 mM NaHCO3, and 1 mM MgCl2, pH 7.3) and rested for 30 min at 30°C before experiments. All protocols using human blood samples were approved by the Research Ethics Committees of the Federal University of […] and the University of Reading. PRP and WP aggregation assays were performed in a four-channel aggregometer (Helena Biosciences, […], England). […] Aggregation traces from at least three different donors were recorded for 5 min.

For series [2], the system named is washed platelets. Description: Flow cytometry: fibrinogen binding and P-selectin exposure. The format is cell-based, human. How it is done: Whole blood was centrifuged at 250 × g for 10 min at 22°C to obtain PRP. To obtain washed platelets (WP), PRP was centrifuged twice (1,000 × g, 10 min, 20°C) in the presence of 1.25 μg/ml prostacyclin. The final platelet pellet was resuspended in modified Tyrode's-HEPES buffer, (20 mM N-2-hydroxyethylpiperazine-N'-2-ethanesulfonic acid, 5 mM glucose, 134 mM NaCl, 0.34 mM Na2HPO4, 2.9 mM KCl, 12 mM NaHCO3, and 1 mM MgCl2, pH 7.3) and rested for 30 min at 30°C before experiments. All protocols using human blood samples were approved by the Research Ethics Committees of the Federal University of […] and the University of Reading. WP (2-3 × 10^8 platelets/ml) were incubated with PESc at the same concentrations and conditions used for platelet aggregation experiments. Then WP were incubated for 10 min with thrombin (0.02 U/ml). FITC-conjugated PAC-1 antibody was added for 10 min in the dark and fluorescence read using a flow cytometer FACS Calibur (BD Biosciences, Franklin Lakes, USA). […] FITC-conjugated fibrinogen and PE/Cy5-conjugated anti-human CD62P were incubated for 30 min, then platelets were read after a 25-fold dilution with Tyrodes-HEPES buffer.

Series [3] deals with washed platelets. Kind of series: Platelet spreading on collagen or fibrinogen. The format is cell-based, human. How it is done: Non-adhered platelets were removed and the coverslip washed three times with PBS. Adhered platelets were fixed using 0.2% paraformaldehyde for 10 min. This solution was then removed and coverslips washed three times with PBS before the addition of 0.1% (v/v) Triton-X to permeabilize the cells. […] Coverslips were mounted onto microscope glass slides and imaged using a 100× oil immersion lens on a Nikon A1-R Confocal microscope.

Series [4] has as its system whole blood on collagen-coated Vena8 bio-chips. Kind of series: Thrombus formation under flow. The format is cell-based, human. The settings on record: 30 µM, shear rate 45 dyn/cm^2, 10 min. As to the method:
Fluorescence intensity was calculated using NIS Elements Software (Nikon, Tokyo, Japan).

The test system of a further series is VASP (Ser239). Kind of series: VASP (Ser239) phosphorylation immunoblotting. The format is cell-based, human. The settings on record: resting washed platelets, 7.5, 15 and 30 μM, 10 min. How it is done:
After protein separation, semi-dry transfer was performed at 15V for 2 h using a BioRad Trans-blot semidry blotter. Membranes were blocked with 5% bovine serum albumin (BSA) for 1 h and incubated with primary antibodies against VASP ([…]) or GAPDH at 1:1,000 v/v dilution overnight. After washing the primary antibody off, […] secondary antibody was incubated for 1 h at room temperature at 1:4,000 v/v dilution. Membranes were visualized using a Typhoon imaging system (GE Healthcare, Hatfield, UK).
A general note: In western blotting, separated proteins are transferred to a membrane and probed.

For the next series, the target named is T1, recombinant ERp72 (Homo sapiens, UniProt P13667).
T1 sequence (P13667 21-645): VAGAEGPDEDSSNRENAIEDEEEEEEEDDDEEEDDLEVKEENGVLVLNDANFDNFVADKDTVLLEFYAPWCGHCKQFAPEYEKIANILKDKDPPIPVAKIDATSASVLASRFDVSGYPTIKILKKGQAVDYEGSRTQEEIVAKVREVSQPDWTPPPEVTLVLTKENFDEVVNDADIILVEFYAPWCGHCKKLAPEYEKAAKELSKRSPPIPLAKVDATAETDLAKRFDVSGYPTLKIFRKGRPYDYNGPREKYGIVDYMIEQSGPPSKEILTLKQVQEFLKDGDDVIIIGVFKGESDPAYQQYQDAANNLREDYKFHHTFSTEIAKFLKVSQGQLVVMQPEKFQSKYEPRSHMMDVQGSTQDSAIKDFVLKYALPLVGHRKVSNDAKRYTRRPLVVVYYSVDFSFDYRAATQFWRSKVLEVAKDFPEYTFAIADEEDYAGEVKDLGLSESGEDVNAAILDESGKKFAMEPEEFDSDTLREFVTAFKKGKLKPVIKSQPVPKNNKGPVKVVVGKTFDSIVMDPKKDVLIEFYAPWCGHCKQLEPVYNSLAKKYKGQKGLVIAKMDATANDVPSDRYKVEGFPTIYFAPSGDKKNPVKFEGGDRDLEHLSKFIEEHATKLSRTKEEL
Kind of series: Protein fluorescence quenching, ERp72. The format is binding.

The target in series [5] is T2, recombinant PDI (Homo sapiens, UniProt P07237). Description: Reductase activity (Di-E-GssG), PDI. The format is biochemical. The settings on record: PDI 2 µM, myricetin 0.01–10 µM, Di-E-GssG probe.
T2 sequence (P07237 18-508): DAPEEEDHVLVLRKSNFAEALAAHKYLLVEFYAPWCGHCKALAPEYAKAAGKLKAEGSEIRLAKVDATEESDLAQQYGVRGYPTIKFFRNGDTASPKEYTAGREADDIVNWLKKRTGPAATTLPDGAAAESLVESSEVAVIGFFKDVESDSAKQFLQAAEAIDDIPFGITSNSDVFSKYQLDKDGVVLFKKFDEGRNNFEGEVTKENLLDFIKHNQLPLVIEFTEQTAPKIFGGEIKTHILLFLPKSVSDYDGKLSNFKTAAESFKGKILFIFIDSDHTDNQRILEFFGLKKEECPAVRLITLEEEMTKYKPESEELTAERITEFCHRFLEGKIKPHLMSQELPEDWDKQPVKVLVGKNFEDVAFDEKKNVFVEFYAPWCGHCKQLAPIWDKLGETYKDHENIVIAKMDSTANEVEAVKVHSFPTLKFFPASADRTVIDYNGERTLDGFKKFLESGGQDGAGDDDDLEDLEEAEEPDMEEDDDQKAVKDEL
Series [6] deals with T3, recombinant ERp5 (Homo sapiens, UniProt Q15084).
T3 sequence (Q15084 20-440): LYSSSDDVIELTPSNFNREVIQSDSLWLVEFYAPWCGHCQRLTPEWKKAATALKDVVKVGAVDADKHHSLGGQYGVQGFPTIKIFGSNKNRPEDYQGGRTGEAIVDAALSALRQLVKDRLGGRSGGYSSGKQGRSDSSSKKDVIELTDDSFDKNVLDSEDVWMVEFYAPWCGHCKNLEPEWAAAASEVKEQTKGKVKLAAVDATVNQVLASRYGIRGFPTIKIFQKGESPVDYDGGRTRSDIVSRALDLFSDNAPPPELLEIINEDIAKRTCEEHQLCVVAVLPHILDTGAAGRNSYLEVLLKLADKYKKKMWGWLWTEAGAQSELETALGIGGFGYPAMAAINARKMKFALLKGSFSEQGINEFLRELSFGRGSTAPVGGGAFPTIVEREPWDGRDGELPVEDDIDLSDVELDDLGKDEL
Kind of series: Reductase activity (Di-E-GssG), ERp5. The settings on record: ERp5 2 µM, myricetin 0.01–10 µM, Di-E-GssG probe. The format is biochemical.

For series [7], the target named is T3, recombinant ERp5. The note with it: ERp5 2 µM, myricetin 0.01–10 µM, Mean ± SEM.
Series [8] addresses T2, recombinant PDI. The note with it: Kq=KSV/τ0, τ0 10^-8 s.
Details of series [9]: method as in Dang et al., 2014. The settings on record: rats, single oral dose of 100 mg/kg; ref Dang et al., 2014; cited from earlier work.
In series [10] the target is T3, recombinant ERp5. Description: biochemical.
A further series has as its target T4, recombinant ERp57 (Homo sapiens, UniProt P30101).
T4 sequence (P30101 25-505): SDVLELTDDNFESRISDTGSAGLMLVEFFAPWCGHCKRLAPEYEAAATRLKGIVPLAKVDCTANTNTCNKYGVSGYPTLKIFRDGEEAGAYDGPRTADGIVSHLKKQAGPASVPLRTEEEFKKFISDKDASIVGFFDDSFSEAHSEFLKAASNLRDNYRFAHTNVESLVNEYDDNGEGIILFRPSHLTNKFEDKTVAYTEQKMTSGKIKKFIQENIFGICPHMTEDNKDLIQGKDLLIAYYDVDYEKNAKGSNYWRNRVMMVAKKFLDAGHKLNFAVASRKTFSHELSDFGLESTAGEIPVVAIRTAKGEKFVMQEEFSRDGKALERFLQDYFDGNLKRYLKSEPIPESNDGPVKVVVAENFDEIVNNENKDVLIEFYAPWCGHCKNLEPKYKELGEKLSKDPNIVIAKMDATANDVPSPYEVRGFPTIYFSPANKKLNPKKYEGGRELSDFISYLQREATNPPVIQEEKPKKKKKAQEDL
Kind of series: biochemical.

Series [11] deals with T2, recombinant PDI. Description: biochemical.
In another series the test system is PDI. The note with it: insulin turbidimetry, cited from earlier work; for inhibition of PDI (in words): ref Jasuja et al., 2012.

The structures appear in SMILES notation.

With `O=C(O)c1cc(O)c(O)c(O)c1` [Gallic acid, gallic acid], the “inhibition of platelet aggregation (in words)” value in the series on washed platelets [1] (TRAP-6-induced) is listed as “unable to inhibit platelet aggregation, except at the higher concentration used (300 μM)”; in the series on washed platelets [1] (collagen-induced), “unable to inhibit platelet aggregation”. The “fibrinogen binding (in words)” value with washed platelets [2] (CRP-activated washed platelets, 150 μM) is on record as “only able to reduce fibrinogen binding when incubated at 150 μM”.

In the case of `O=c1c(O)c(-c2cc(O)c(O)c(O)c2)oc2cc(O)cc(O)c12` [Myricetin], the inhibition at 30 µM in the series with washed platelets [1] (TRAP-6-induced) was approximately 60%; in the series on washed platelets [1] (collagen-induced), approximately 80%; with washed platelets [3] (Homo sapiens, Platelet, collagen-coated coverslips, 30 μM) it was approximately 25%. Moreover, the “fibrinogen binding (in words)” value is reported as “abolish” in the series with washed platelets [2] (CRP-activated washed platelets, 15 μM) and “still inhibited fibrinogen binding” with washed platelets [2] (TRAP-6-activated washed platelets). In the series on washed platelets [3] (fibrinogen-coated coverslips, 7.5-30 μM), the “platelet spreading (in words)” value is “no effect”. Moreover, the “thrombus formation (fluorescence intensity) (in words)” value in [4] is listed as “decreased thrombus formation”. In addition, the “VASP phosphorylation (in words)” value in the series with VASP (Ser239) is listed as “did not induce VASP phosphorylation”. For the same molecule, the “K SV (Stern-Volmer constant)” value on recombinant ERp72 (ERp72 2 µM, myricetin 0.01–10 µM, Mean ± SEM) was 27,515 ± 5,675 M^-1; at recombinant ERp5 [7], 48,750 ± 9,554 M^-1. The “Kq (quenching rate constant)” value on recombinant ERp72 (ERp72, Kq=KSV/τ0, τ0 10^-8 s) stood at 2.75e+12 M⁻¹ s⁻¹; on recombinant PDI [8], 2.12e+12 M⁻¹ s⁻¹. At recombinant ERp72 (ERp72, determined for highest concentration tested), the “K b (binding constant)” value came out at 394000 M⁻¹. Besides, the Kd at recombinant ERp72 (read-out: K d (dissociation constant)) worked out at 2.53 µM; on recombinant ERp5 [10], 1.74 µM; on recombinant ERp57 it was 1.83 µM; on recombinant PDI [11], 4.26 µM. Further, the “inhibition of reductase activity (in words)” value on recombinant PDI [5] is “inhibit both PDI and ERp5, being more potent against PDI”; on recombinant ERp5 [6], “inhibit both PDI and ERp5”. In series [9], the peak plasma concentration is 10 µM.

Regarding `O=c1c(O)c(-c2ccc(O)c(O)c2)oc2cc(O)cc(O)c12` [Quercetin, quercetin], the “inhibition of PDI (in words)” value with PDI was “weak inhibitor of PDI”.

Consider `O=c1c(O[C@@H]2O[C@H](CO)[C@@H](O)[C@H](O)[C@H]2O)c(-c2ccc(O)c(O)c2)oc2cc(O)cc(O)c12` [isoquercetin], for which, in the series on PDI (ref Stopa et al., 2017), the “inhibition of PDI reductase activity (in words)” value was “potent inhibitors of PDI reductase activity”.

Take `C[C@@H]1O[C@@H](OC[C@H]2O[C@@H](Oc3c(-c4ccc(O)c(O)c4)oc4cc(O)cc(O)c4c3=O)[C@H](O)[C@@H](O)[C@@H]2O)[C@H](O)[C@H](O)[C@H]1O` [rutin]: in the series on PDI, the “inhibition of PDI (in words)” value was “potent inhibitors of PDI reductase activity”.

As a reminder, the inhibition is the change of the read-out against control, counted positive when it falls. Higher therefore signals a strong effect.
